Assay results as given in patent US9518038B2, “Condensation product of theanine derivative and carboxylic acid coumarin derivative, its intermediate, preparation method and use thereof” (SHANDONG YINGDONG YINGHAO BIOTECHNOLOGY, INC., priority 2012, dated 2016).
Where two headings read alike, the source gives them in different places. Marks after values point to notes of the source that are not given here.

How the values were obtained:
[1] = tested on: human chronic leukemia cells K562; experiment: MTT growth inhibition, K562 cells; type: cell-based; settings: 72 h after treatment, read-out: Drug concentration (IC50) at which 50% cancer cells survived
Description: (§1) Cell lines and cell culture: human lung cancer cells A549 and H460, human breast cancer cells MCF-7 and MDA-MB-231, human gastric cancer cells BGC-823, human prostate cancer cells PC-3, human chronic leukemia cells K562, human lymphoma cells U937, human liver cancer cells SMMC7721 and HepG2, human colon cancer cells HT29, human pancreatic cancer cells PANC-1 and BxPC3, human cervical cancer Hela cell lines, human brain tumor cells Daoy, human neuroma cells D54 and human oral epidermoid cancer cells KBV200 line with strong drug resistance, mouse melanoma cells B16, and highly metastatic Lewis lung cancer cell lines were purchased from American Type Culture Collection of the U.S. These cells were cultured with DMEM and RPMI-1640 culture solutions separately.
(§2) The procedure was as follows:
(§3) (1) 0.25% trypsin was used to digest cancer cells in a logarithmic growth phase to prepare a single-cell suspension, the concentration of cells was adjusted to 5×10^4/mL, and the adjusted suspension was inoculated into a 96-well culture plate with 100 μl per well;
(§4) (2) The culture plate was transferred into a 37° C. incubator with a saturated humidity and 5% of CO2 and cultured for 24 h; the compounds and the intermediates thereof obtained in embodiments 1-7 and the compound as represented by formula (IIIa) or the positive control anti-cancer drug with the concentration of 1-1000 μM/L were added to enable the final concentration to be 0.1-1500 μM/L. Control wells (only added with 200 μl of cell suspension) and drug-free blank control wells (containing the solvent of 0.01% DMSO) were set, each group included 8 wells, and the plate was placed into the 37° C. incubator with saturated humidity and 5% of CO2 for culturing;
(§5) (3) The 96-well plate was taken out at 48 h and 72 h after dosing, the original culture medium was carefully removed by suction, 100 μl of serum-free DMEM culture medium and 10 μl of MTT (5 mg/mL) solution were added in each well. The plate was continuously cultured for another 4 h and then the culture was terminated;
(§6) (4) The supernatant in the wells was carefully removed by suction, each well was added with 150 μl of DMSO and shaked at room temperature for 10-15 min to fully dissolve crystals.
(§7) (5) Colorimetric analysis: the wavelength was selected as 570 nm, the light absorbance (A value) of each well was determined on the microplate reader and the results were recorded; the experiment was repeated for three times;
(§8) (6) the experimental results were calculated according to the following formula: relative survival rate=(A value of each experimental group/A value of cell control group)×100%
(§9) Calculation of median-effect concentration (IC50, namely the drug concentration at which the inhibition rate is 50%, also known as half inhibitory concentration):
(§10) IC50 of the detected component was calculated by using a regression equation.

Caspase3 = experiment: Western Blotting, increase of Caspase3 level; type: cell-based; settings: liver cancer cells, Lewis lung cancer cells and other cancer cell lines and tumor tissue protein lysates, 48 h treatment, read-out: Effective concentration to increase Caspase-3 by 50%
Description: (§11) Antibodies: primary antibodies of VEGFR, EGFR, c-Met, K-Ras, H-Ras, Akt, NF-κB, Cyclin D1, ER-alpha, Dvl-1, Dvl-2, Dvl-3, MMP-9, MMP2, β-catenin, Bcl-2, Bax, p53, p21, E-cadherin and Caspase3 protein, purchased from American Cell Signaling Technology Company and Santa Cruz Technology Company; and H3 acetylation, H4 acetylation and HDAC (HDAC3, HDAC4 and the like) Antibody Sample Kits, purchased from Cell Signaling Technology Company of the U.S.
(§12) (3) polyacrylamide gel electrophoresis (SDS-PAGE): an equal amount of protein lysate sample was used to separate protein, film transfer, and blocking, treated with appropriate primary antibodies and secondary antibodies in sequence, and the film was washed, then the color was developed with ECL kit, and a blot protein band was detected by exposure of an X-ray film; and a Gel-Pro Analyzer was used for quantitative analysis of gray degree, optical density value of the control group and the drug treatment group in various concentration were respectively compared with that of internal reference, the obtained ratios were respectively compared with the control group, and the protein expression level was semi-quantified.

HDAC3 = HDAC3 enzyme activity in nuclear extracts of human tumor xenografts of treated mice; settings: first value of the pair HDAC3 and HDAC4, SAHA 25 mg/kg
Description: For the detection of the effect of the drugs on enzyme activity of EZH2 and HDAC of in-vivo tumors, the tumors were separately excised after 6 h of medication, total proteins and nucleoproteins were extracted separately to detect and analyze the activity of the enzyme.
(2) 50 μl of diluted sample solution was added into each reaction well, the plate was sealed with a plate-sealing film and reacted at room temperature for 30 min;
(3) the plate-sealing film was carefully peeled off, the liquid was removed, dried, 150 μl of washing liquid was added into each well, stood for 30 s, then the liquid was removed, repeated twice, and dried;
(4) 2 μl of HDAC enzyme or tumor tissue nuclear extracts was respectively uniformly mixed with 28 μl of diluted sample solution, added into the wells, the plate was sealed with the plate-sealing film and reacted at 37° C. for 60 min;
(5) the plate was washed for three times, wherein the operation was the same as that in (3); and a diluted antibody capture working solution was added into each reaction well according to 50 μl/well and reacted on a shaking bed at room temperature for 60 min;
(6) the plate was washed for four times, wherein the operation was the same as that in (3);
(7) a diluted antibody detection working solution was added into each reaction well according to 50 μl/well and reacted at room temperature for 30 min;
(8) the plate was washed for five times, wherein the operation was the same as that in (3);
a color developing agent was added according to 100 μl/well, and performed dark development for 2-10 min;
(9) 50 μl of stop solution was added into each well for stopping the reaction when the color in the well with a standard product turned blue with medium intensity, the color immediately turned yellow from blue after the addition;
(10) the light absorbance (OD value) of each well was measured in sequence at the wavelength of 450 nm; wherein the measurement should be performed within 15 min after addition of the stop solution; and

H-Ras = experiment: Western Blotting, H-Ras level; type: cell-based; settings: human liver cancer cells, Lewis lung cancer cells and other cancer cell lines and tumor tissues, read-out: Effective concentration (IC50) for inhibition of H-Ras
Description: as §11, §12

[2] = tested on: nucleoprotein factor NF-κB (p65)-DNA binding activity; experiment: NF-κB (p65)-DNA binding activity (EMSA); type: cell-based
Description: The in-vitro experiment of the inhibitory effect against the NF-κB(p65)-DNA binding activity was applied with the chemiluminescent EMSA kit of Pierce Biotechnology Company of the U.S., the experimental method was strictly operated according to the description of the kit and the specific procedure were as follows:
(1) Preparation of EMSA gel
The cells treated by the drugs were extracted by the nucleoprotein extract solution (provided by Beyotime Biotechnology of Institute) to obtain the nucleoprotein extracts, and 10 μg/pipe of the nucleoprotein extracts were respectively used for sample reaction and electrophoresis detection and analysis shown in the following table.
(2) Pre-electrophoresis: the gel was fixed in an electrophoresis tank, which was filled with a 0.5×TBE electrophoresis buffer solution, and electrophoresed under 10V/cm for 90 min. The probe binding reaction was as follows:
The components were added in sequence into the EP pipe according to the above table, uniformly mixed and stood at room temperature for 15 min to eliminate possible non-specific binding of probe and protein. 1 μl of biotin-labeled probe NF-κB was respectively added and stood at room temperature for 20 min.
(4) Film transfer: the process of transferring the nucleoprotein factors and the binding probe on the EMSA gel to the nylon film was electrically transferred under 380 mA in ice bath for 40 min.
(5) Ultraviolet cross-linking: the nylon film was placed under a 254 nm ultraviolet lamp and irradiated for 15 min.
(6) Detection of the biotin-labeled probe by chemiluminescence: the cross-linked nylon film was blocked with the blocking solution, a treated film was subjected to X-ray exposure, developing, and fixation according to the requirements of the kit, and the results were analyzed.

E-cadherin = experiment: Western Blotting, increase of E-cadherin level; type: cell-based; settings: liver cancer cells, Lewis lung cancer cells and other cancer cell lines and tumor tissue protein lysates, 48 h treatment, read-out: Effective concentration to increase E-cadherin by 50%
Description: as §11, §12

Nuclear β-catenin = experiment: Western Blotting, nuclear β-catenin level; type: cell-based; settings: human liver cancer cells, Lewis lung cancer cells and other cancer cell lines and tumor tissues, read-out: Effective concentration (IC50) for inhibition of Nuclear β-catenin
Description: as §11, §12

[3] = tested on: human breast cancer cells MCF-7; experiment: MTT growth inhibition, MCF-7 cells; type: cell-based; settings: MCF7, 72 h after treatment, read-out: Drug concentration (IC50) at which 50% cancer cells survived
Description: as §1, §2, §3, §4, §5, §6, §7, §8, §9, §10

[4] = A549 cells, EMSA, nuclear protein extracts, 48 h, read-out: Effective concentration for 50% inhibition of binding of nucleoprotein factor NF-kB (p65) and DNA
[5] = MCF7 cells, EMSA, nuclear protein extracts, 48 h, read-out: Effective concentration for 50% inhibition of binding of nucleoprotein factor NF-kB (p65) and DNA
[6] = MDA-MB231 cells, EMSA, nuclear protein extracts, 48 h, read-out: Effective concentration for 50% inhibition of binding of nucleoprotein factor NF-kB (p65) and DNA
[7] = SMMC7721 cells, EMSA, nuclear protein extracts, 48 h, read-out: Effective concentration for 50% inhibition of binding of nucleoprotein factor NF-kB (p65) and DNA
[8] = human liver cancer cells, Lewis lung cancer cells and other cancer cell lines and tumor tissues, read-out: Effective concentration (IC50) for inhibition of NF-κB-DNA binding activity

SMILES | IC50 [1] | EC50 (Caspase3) | decrease of HDAC3 enzyme activity/inhibition rate (HDAC3; A549 tumor grown in vivo) | decrease of HDAC3 enzyme activity/inhibition rate (HDAC3; MCF7 tumor grown in vivo) | decrease of HDAC3 enzyme activity/inhibition rate (HDAC3; MDA-MB231 tumor grown in vivo) | decrease of HDAC3 enzyme activity/inhibition rate (HDAC3; SMMC7721 tumor grown in vivo) | IC50 (H-Ras) | IC50 [2, 4] | IC50 [2, 5] | IC50 [2, 6] | IC50 [2, 7] | IC50 [2, 8] | EC50 (E-cadherin) | IC50 (Nuclear β-catenin) | IC50 [3] | IC50 ([2]; Lewis lung cancer cells, EMSA, nuclear protein extracts, 48 h, read-out: Effective concentration for 50% inhibition of binding of nucleoprotein factor NF-kB (p65) and DNA)
CCNC(=O)CCC(NC(=O)c1cc2cc(F)ccc2oc1=O)C(=O)OCC (stereo in doubt) [Compound Ie, (R)-2-(6-F-2-oxo-2H-benzopyran-3-carboxamido)-5-ethylamino-5-oxo-pentanoic acid ethyl ester] | 130 µM | < 100 µM | 70%* and | 65%* and | 60%* and | 63%* and | < 60 µM | < 120 µM | < 100 µM | < 110 µM | < 121 µM | < 100 µM | < 65 µM | < 65 µM | 115 µM | 
CCNC(=O)CCC(NC(=O)c1cc2cc([N+](=O)[O-])ccc2oc1=O)C(=O)OCC (stereo in doubt) [Compound If, (R)-2-(6-nitro-2-oxo-2H-benzopyran-3-carboxamido)-5-ethylamino-5-oxo-pentanoic acid ethyl ester] | 91 µM | < 80 µM | 73%* and | 67%* and | 65%* and | 66%* and | < 55 µM | < 100 µM | < 100 µM | < 100 µM | < 100 µM | < 100 µM | < 65 µM | < 90 µM | 112 µM | 
CCNC(=O)CC[C@H](N)C(=O)OC [Compound IIa, theanine methyl ester] | 350 µM |  |  |  |  |  |  |  |  |  |  |  |  |  | 450 µM | 
CCNC(=O)CC[C@H](N)C(=O)OCC [Compound IIb, theanine ethyl ester] | 600 µM |  |  |  |  |  |  |  |  |  |  |  |  |  | 300 µM | 
CCNC(=O)CCC(NC(=O)c1cc2ccccc2oc1=O)C(=O)OC (stereo not shown) [Compound Ia, methyl 5-ethylamino-5-oxo-2-(2-oxo-2H-benzopyran-3-carboxamido)pentanoate] | 248 µM | < 125 µM |  |  |  | 60%* and | < 85 µM |  |  |  | < 125 µM | < 135 µM | < 75 µM | < 120 µM | 220 µM | < 135 µM
CCNC(=O)CCC(NC(=O)c1cc2ccccc2oc1=O)C(=O)OCC (stereo not shown) [Compound Ib, ethyl 5-ethylamino-5-oxo-2-(2-oxo-2H-benzopyran-3-carboxamido)pentanoate] | 150 µM | < 120 µM | 65%* and |  |  | 63%* and | < 75 µM | < 135 µM |  |  | < 120 µM | < 130 µM | < 70 µM | < 120 µM | 103 µM | 
CCNC(=O)CC[C@@H](NC(=O)c1cc2cc(Cl)ccc2oc1=O)C(=O)OCC [Compound Ic, (R)-2-(6-CI-2-oxo-2H-benzopyran-3-carboxamido)-5-ethylamino-5-oxo-pentanoic acid ethyl ester] | 105 µM | < 100 µM | 71%* and | 60%* and | 63%* and | 65%* and | < 65 µM | < 125 µM | < 125 µM | < 125 µM | < 125 µM | < 125 µM | < 65 µM | < 100 µM | 95 µM | 
CCNC(=O)CC[C@@H](NC(=O)c1cc2cc(Br)ccc2oc1=O)C(=O)OCC [Compound Id, (R)-2-(6-Br-2-oxo-2H-benzopyran-3-carboxamido)-5-ethylamino-5-oxo-pentanoic acid ethyl ester] | 125 µM | < 100 µM | 71%* and | 60%* and | 63%* and | 65%* and | < 60 µM | < 110 µM | < 100 µM | < 100 µM | < 80 µM | < 120 µM | < 65 µM | < 100 µM | 102 µM | 
